Laboratory results taken from patent publication US9321809B2, “Macrocyclic compounds for suppressing replication of hepatitis C virus” (Ginkgo Pharma Co., Ltd., priority 2012, dated 2016).

Test system: HCV replicon-containing huh-7 cells (replicon 1b)
Assay: HCV Replicon Assay (luciferase readout)
Format: cell-based
Conditions: Hepatitis C virus; HCV replicon 1b in huh-7 cells, 48 h incubation, 1% DMSO, luciferase signal; read-out: EC50 (EC 50 on replicon 1b)
Description: Compounds of formuala (I) are tested for the ability to inhibit viral replication of the Hepatitis C viruses by the following in vitro assays.
DMEM (Life Technologies #41965-039) was supplemented with 10% FBS, 2 mM L-glutamine (Life Technologies #25030-024), penicillin (100 units/ml)/streptomycin (100 micrograms/ml) (Life Technologies #15140-114), 1× non-essential amino acids (Life Technologies #11140-035).
Complete media was prepared by mixing FBS, DMEM media with Geneticin (G418). The compete media was preincubated at 37° C. in a CO2 incubator. Then, HCV replicon-containing huh-7 cells (V. Lohmann et. al. Science, 285, (1999)110-113) was taken out from 37° C. incubator. The residual medium was absorbed, and the cells were washed with PBS. After washing fluid was removed, 1 ml 0.25% trypsin/0.02% EDTA solution. The cells were washed by the above trypsin/EDTA solution to make sure that each cell was cleaned. After the trypsin/EDTA solution was absorbed, the mixture was incubated at 37° C. in a CO2 incubator for 3-5 minutes. Morphological changes were observed by inverted microscope, till the cells were detached from the wall of container completely.
3 ml of complete media was added to make the cells to suspend. The cells are counted with hematometer. Appropriate volumes of the complete media was added to adjust the cell density to 100,000/ml. Cells were plated with 100 μl of suspension at 10,000/well of 96 well plate. Plates were placed into 37° C. 5% CO2 incubator for 24 h.
Preparation of Drug Solution:
Drugs were diluted under aseptic conditions.
Stock solutions may be prepared before the assay, which means that the test compounds are dissolved in 100% DMSO to afford a final concentration of 2 mM. Before the 96 well culture was completed, the stock solution was diluted with culter media to 100 fold of the final concentration (100× solution).
96-well plates were taken out from 37° C. CO2 incubator and morphological changes were observed by inverted microscope. In a ventilator, 1 μl of 100× drug solution was added to wells of 96 well plate until the final concentration of DMSO in the mixture is 1%. The plates were incubated at 37° C. in a CO2 environment for 48 h. 30 μl of Stead-G1® Luciferase Assay System (bought from Promega) was added to each well of 96 well plates and each plate is shaken in a plate shaker for 5 minutes to ensure cells cleavaged completely. The fluorescence signal was quantitated in a Perkin-Elmer plate reader (Envision) and integral time was setted to be 2 second. The following data were achieved after recording and analyzing the data.

SMILES | EC50
C=C[C@@H]1C[C@]1(NC(=O)[C@@H]1C[C@@H]2CN1C(=O)[C@H](C(C)(C)C)NC(=O)[C@@H](NC(=O)NC(C)(C)C)COC/C=C/c1cccc3c1CN(C3)C(=O)O2)C(=O)NS(=O)(=O)C1CC1 [Compound IIa-12, (1R,12E,17S,20S,23S)-20-tert-butyl-17-[(tert-butylcarbamoyl)amino]-N-[(1R,2S)-1-[(cyclopropanesulfonyl)carbamoyl]-2-ethenylcyclopropyl]-3,18,21-trioxo-2,15-dioxa-4,19,22-triazatetracyclo[20.2.1.1^4,7.0^6,11]hexacosa-6,8,10,12-tetraene-23-carboxamide] | < 10 nM
C=C[C@@H]1C[C@]1(NC(=O)[C@@H]1C[C@@H]2CN1C(=O)[C@H](C(C)(C)C)NC(=O)[C@@H](NC(=O)OC(C)(C)C)COCCCc1cccc3c1CN(C3)C(=O)O2)C(=O)NS(=O)(=O)C1CC1 [Compound IIa-13, tert-butyl N-[(1R,17S,20S,23S)-20-tert-butyl-23-{[(1R,2S)-1-[(cyclopropanesulfonyl)carbamoyl]-2-ethenylcyclopropyl]carbamoyl}-3,18,21-trioxo-2,15-dioxa-4,19,22-triazatetracyclo[20.2.1.1^4,7.0^6,11]hexacosa-6,8,10-trien-17-yl]carbamate] | 10 to 50 nM
CC[C@@H]1C[C@]1(NC(=O)[C@@H]1C[C@@H]2CN1C(=O)[C@H](C(C)(C)C)NC(=O)[C@@H](NC(=O)OC(C)(C)C)COCCCc1cccc3c1CN(C3)C(=O)O2)C(=O)NS(=O)(=O)C1CC1 [Compound IIa-14, tert-butyl N-[(1R,17S,20S,23S)-20-tert-butyl-23-{[(1R,2R)-1-[(cyclopropanesulfonyl)carbamoyl]-2-ethylcyclopropyl]carbamoyl}-3,18,21-trioxo-2,15-dioxa-4,19,22-triazatetracyclo[20.2.1.1^4,7.0^6,11]hexacosa-6,8,10-trien-17-yl]carbamate] | 50 to 500 nM
CC[C@@H]1C[C@]1(NC(=O)[C@@H]1C[C@@H]2CN1C(=O)[C@H](C(C)(C)C)NC(=O)[C@@H](NC(=O)OC(C)(C)C)COC/C=C/c1cccc3c1CN(C3)C(=O)O2)C(=O)NS(=O)(=O)C1CC1 [Compound IIa-15, tert-butyl N-[(1R,12E,17S,20S,23S)-20-tert-butyl-23-{[(1R,2R)-1-[(cyclopropanesulfonyl)carbamoyl]-2-ethylcyclopropyl]carbamoyl}-3,18,21-trioxo-2,15-dioxa-4,19,22-triazatetracyclo[20.2.1.1^4,7.0^6,11]hexacosa-6,8,10,12-tetraen-17-yl]carbamate] | < 10 nM
C=C[C@@H]1C[C@]1(NC(=O)[C@@H]1C[C@@H]2CN1C(=O)[C@H](C1CCCCC1)NC(=O)[C@@H](NC(=O)OC(C)(C)C)COCCCc1cccc3c1CN(C3)C(=O)O2)C(=O)NS(=O)(=O)C1CC1 [Compound IIa-17, tert-butyl N-[(1R,17S,20S,23S)-20-cyclohexyl-23-{[(1R,2S)-1-[(cyclopropanesulfonyl)carbamoyl]-2-ethenylcyclopropyl]carbamoyl}-3,18,21-trioxo-2,15-dioxa-4,19,22-triazatetracyclo[20.2.1.1^4,7.0^6,11]hexacosa-6,8,10-trien-17-yl]carbamate] | < 10 nM
CC[C@@H]1C[C@]1(NC(=O)[C@@H]1C[C@@H]2CN1C(=O)[C@H](C1CCCCC1)NC(=O)[C@@H](NC(=O)OC(C)(C)C)COCCCc1cccc3c1CN(C3)C(=O)O2)C(=O)NS(=O)(=O)C1CC1 [Compound IIa-18, tert-butyl N-[(1R,17S,20S,23S)-20-cyclohexyl-23-{[(1R,2R)-1-[(cyclopropanesulfonyl)carbamoyl]-2-ethylcyclopropyl]carbamoyl}-3,18,21-trioxo-2,15-dioxa-4,19,22-triazatetracyclo[20.2.1.1^4,7.0^6,11]hexacosa-6,8,10-trien-17-yl]carbamate] | 10 to 50 nM
CC[C@@H]1C[C@]1(NC(=O)[C@@H]1C[C@@H]2CN1C(=O)[C@H](C1CCCCC1)NC(=O)[C@@H](NC(=O)OC(C)(C)C)COC/C=C/c1cccc3c1CN(C3)C(=O)O2)C(=O)NS(=O)(=O)C1CC1 [Compound IIa-19, tert-butyl N-[(1R,12E,17S,20S,23S)-20-cyclohexyl-23-{[(1R,2R)-1-[(cyclopropanesulfonyl)carbamoyl]-2-ethylcyclopropyl]carbamoyl}-3,18,21-trioxo-2,15-dioxa-4,19,22-triazatetracyclo[20.2.1.1^4,7.0^6,11]hexacosa-6,8,10,12-tetraen-17-yl]carbamate] | < 10 nM
C=C[C@@H]1C[C@]1(NC(=O)[C@@H]1C[C@@H]2CN1C(=O)[C@H](C(C)(C)C)NC(=O)[C@@H](NC(=O)OC(C)(C)C)CCOC/C=C/c1cccc3c1CN(C3)C(=O)O2)C(=O)NS(=O)(=O)C1CC1 [Compound IIa-20] | < 10 nM
C=C[C@@H]1C[C@]1(NC(=O)[C@@H]1C[C@@H]2CN1C(=O)[C@H](C(C)(C)C)NC(=O)[C@@H](NC(=O)OC(C)(C)C)CSC/C=C/c1cccc3c1CN(C3)C(=O)O2)C(=O)NS(=O)(=O)C1CC1 [Compound IIa-21, tert-butyl N-[(1R,12E,17R,20S,23S)-20-tert-butyl-23-{[(1R,2S)-1-[(cyclopropanesulfonyl)carbamoyl]-2-ethenylcyclopropyl]carbamoyl}-3,18,21-trioxo-2-oxa-15-thia-4,19,22-triazatetracyclo[20.2.1.1^4,7.0^6,11]hexacosa-6,8,10,12-tetraen-17-yl]carbamate] | 10 to 50 nM
C=C[C@@H]1C[C@]1(NC(=O)[C@@H]1C[C@@H]2CN1C(=O)[C@H](C1CCCC1)NC(=O)[C@@H](NC(=O)OC(C)(C)C)COC/C=C/c1cccc3c1CN(C3)C(=O)O2)C(=O)NS(=O)(=O)C1CC1 [Compound IIa-22, tert-butyl N-[(1R,12E,17S,20S,23S)-20-cyclopentyl-23-{[(1R,2S)-1-[(cyclopropanesulfonyl)carbamoyl]-2-ethenylcyclopropyl]carbamoyl}-3,18,21-trioxo-2,15-dioxa-4,19,22-triazatetracyclo[20.2.1.1^4,7.0^6,11]hexacosa-6,8,10,12-tetraen-17-yl]carbamate] | < 10 nM
C=C[C@@H]1C[C@]1(NC(=O)[C@@H]1C[C@@H]2CN1C(=O)[C@H](C(C)(C)C)NC(=O)[C@@H](NC(=O)OC(C)(C)C)COC/C=C/c1cc3c(nccc3cc1OC)O2)C(=O)NS(=O)(=O)C1CC1 [Compound IIb-1, tert-butyl N-[(3R,5S,8S,11S,15E)-8-tert-butyl-5-{[(1R,2S)-1-[(cyclopropanesulfonyl)carbamoyl]-2-ethenylcyclopropyl]carbamoyl}-18-methoxy-7,10-dioxo-2,13-dioxa-6,9,23-triazatetracyclo[15.6.2.1^3,6.0^20,24]hexacosa-1(23),15,17(25),18,20(24),21-hexaen-11-yl]carbamate] | < 10 nM
C=C[C@@H]1C[C@]1(NC(=O)[C@@H]1C[C@@H]2CN1C(=O)[C@H](C(C)(C)C)NC(=O)[C@@H](NC(=O)OC(C)(C)C)COCCCc1cc3c(nccc3cc1OC)O2)C(=O)NS(=O)(=O)C1CC1 [Compound IIb-2, tert-butyl N-[(3R,5S,8S,11S)-8-tert-butyl-5-{[(1R,2S)-1-[(cyclopropanesulfonyl)carbamoyl]-2-ethenylcyclopropyl]carbamoyl}-18-methoxy-7,10-dioxo-2,13-dioxa-6,9,23-triazatetracyclo[15.6.2.1^3,6.0^20,24]hexacosa-1(23),17(25),18,20(24),21-pentaen-11-yl]carbamate] | < 10 nM
C=C[C@@H]1C[C@]1(NC(=O)[C@@H]1C[C@@H]2CN1C(=O)[C@H](C1CCCCC1)NC(=O)[C@@H](NC(=O)OC(C)(C)C)COCCCc1cc3c(nccc3cc1OC)O2)C(=O)NS(=O)(=O)C1CC1 [Compound IIb-4, tert-butyl N-[(3R,5S,8S,11S)-8-cyclohexyl-5-{[(1R,2S)-1-[(cyclopropanesulfonyl)carbamoyl]-2-ethenylcyclopropyl]carbamoyl}-18-methoxy-7,10-dioxo-2,13-dioxa-6,9,23-triazatetracyclo[15.6.2.1^3,6.0^20,24]hexacosa-1(23),17(25),18,20(24),21-pentaen-11-yl]carbamate] | < 10 nM
